One assay addresses T1, ENZ1 SEQ ID N°1 (Catenulispora acidiphila, UniProt C7QJ42).
T1 construct: His6 (hexahistidine, inserted after the initial methionine) (N); made in house; host or cells: E. coli BL21(DE3) plysE
T1 sequence (C7QJ42 1-358): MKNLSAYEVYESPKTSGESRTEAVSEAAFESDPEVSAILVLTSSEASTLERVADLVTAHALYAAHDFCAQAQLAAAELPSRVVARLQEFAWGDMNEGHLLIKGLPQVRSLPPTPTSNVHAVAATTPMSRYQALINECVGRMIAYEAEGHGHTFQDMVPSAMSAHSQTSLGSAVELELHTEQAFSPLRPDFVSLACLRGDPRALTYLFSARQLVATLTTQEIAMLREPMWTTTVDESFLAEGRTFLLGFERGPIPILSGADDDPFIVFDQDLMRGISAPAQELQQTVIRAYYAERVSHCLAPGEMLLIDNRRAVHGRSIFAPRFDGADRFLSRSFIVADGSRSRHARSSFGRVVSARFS
In words: Substrate selectivity screening of hydroxylase (conversion by HPLC after Fmoc-Cl derivatization). Type of assay: biochemical. The note with it: enzyme 0.08 mg/mL, molar ratio α-ketoglutarate/substrate 15/10, Hepes buffer 50 mM pH 7,5, Mohr's salt 1mM, without sodium ascorbate, room temperature, three hours. How it is done: (§1) Enzymatic reaction medium (0.2 µmole, leq.), borate buffer 0,2M pH 7.7 (80 µL) and Fmoc-Cl solution7.5 mM in acetone (100 µL, 0.75 µmole, 3.75 eq) were hand shaked in a closed 1.50 mL eppendorf for one minute. The aqueous layer was extracted with petroleum ether (3*1 mL) to eliminate excess of Fmoc-Cl. 70 µL of the aqueous phase were withdrawn, diluted with 70 µL of acetonitrile and injected into the HPLC. For substrates with two amine functions, 100 µL of Fmoc-Cl solution 15 mM were used.
(§2) Conditions for HPLC analysis: Atlantis® T3 (3 µm 4.5*150 mm) at 35°C with the gradient 50-86% eluent B (MeCN + 0.1% TFA) and eluent A (H2O + 0.1% TFA) in 20 min at 1 mL/min.
(§3) Enzymes (0.08 mg/mL) were screened against substrates (molar ratio α-ketoglutarate/substrate 15/10) in Hepes buffer 50 mM pH 7,5, with Mohr's salt at 1mM and without sodium ascorbate, at room temperature for three hours. The potential conversions of the substrates were determined by HPLC after Fmoc-Cl derivatization as section III here above.

In assay [1] the target is T2, ENZ4 SEQ ID NO:4 (Catenulispora acidiphila, UniProt C7Q942).
T2 construct: His6 (hexahistidine, inserted after the initial methionine) (N); made in house; host or cells: E. coli BL21(DE3) plysE
T2 sequence (C7Q942 1-343): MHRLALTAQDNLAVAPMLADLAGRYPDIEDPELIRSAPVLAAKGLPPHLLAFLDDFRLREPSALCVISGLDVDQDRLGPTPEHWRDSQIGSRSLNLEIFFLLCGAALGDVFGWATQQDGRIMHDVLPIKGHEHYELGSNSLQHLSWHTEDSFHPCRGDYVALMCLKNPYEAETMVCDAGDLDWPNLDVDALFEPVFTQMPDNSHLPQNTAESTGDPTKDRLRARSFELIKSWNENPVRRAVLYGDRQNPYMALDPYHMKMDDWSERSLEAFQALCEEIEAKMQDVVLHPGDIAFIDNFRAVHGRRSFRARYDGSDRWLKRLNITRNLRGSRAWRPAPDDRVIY
The description is as above. It is filed as biochemical. The note with it: enzyme 0.08 mg/mL, molar ratio α-ketoglutarate/substrate 15/10, Hepes buffer 50 mM pH 7,5, Mohr's salt 1mM, without sodium ascorbate, room temperature, three hours. How it is done:
as §1, §2, §3

The next assay has as its target T3, ENZ2 SEQ ID NO:2 (Flavobacterium johnsoniae, UniProt A5FF23).
T3 construct: His6 (hexahistidine, inserted after the initial methionine) (N); made in house; host or cells: E. coli BL21(DE3) plysE
T3 sequence (A5FF23 1-370): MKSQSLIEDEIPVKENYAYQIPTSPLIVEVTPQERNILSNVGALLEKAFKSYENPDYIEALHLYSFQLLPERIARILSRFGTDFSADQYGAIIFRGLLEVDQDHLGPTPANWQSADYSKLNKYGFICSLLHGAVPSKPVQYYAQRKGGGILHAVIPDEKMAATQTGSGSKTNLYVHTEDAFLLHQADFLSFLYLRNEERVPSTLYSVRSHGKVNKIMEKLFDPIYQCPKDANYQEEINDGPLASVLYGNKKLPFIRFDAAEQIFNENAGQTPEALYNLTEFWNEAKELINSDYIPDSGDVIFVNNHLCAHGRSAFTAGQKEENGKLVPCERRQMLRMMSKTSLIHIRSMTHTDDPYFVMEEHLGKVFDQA
It is filed as biochemical. The note with it: enzyme 0.08 mg/mL, molar ratio α-ketoglutarate/substrate 15/10, Hepes buffer 50 mM pH 7,5, Mohr's salt 1mM, without sodium ascorbate, room temperature, three hours. The protocol: as §1, §2, §3

The target of another assay is T4, ENZ3 SEQ ID NO:3 (Chitinophaga pinensis, UniProt C7PLM6).
T4 construct: His6 (hexahistidine, inserted after the initial methionine) (N); made in house; host or cells: E. coli BL21(DE3) plysE
T4 sequence (C7PLM6 1-382): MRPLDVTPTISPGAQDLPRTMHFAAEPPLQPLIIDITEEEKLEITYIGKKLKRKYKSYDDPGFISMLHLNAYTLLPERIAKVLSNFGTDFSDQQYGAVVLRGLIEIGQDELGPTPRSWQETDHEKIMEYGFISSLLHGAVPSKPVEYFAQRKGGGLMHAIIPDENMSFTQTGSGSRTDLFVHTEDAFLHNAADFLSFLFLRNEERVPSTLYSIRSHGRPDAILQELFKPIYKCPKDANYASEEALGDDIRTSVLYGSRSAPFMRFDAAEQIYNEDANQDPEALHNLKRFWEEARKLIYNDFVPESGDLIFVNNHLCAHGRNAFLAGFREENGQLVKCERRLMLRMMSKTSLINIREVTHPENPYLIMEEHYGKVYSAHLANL
Type of assay: biochemical. The conditions noted are these: enzyme 0.08 mg/mL, molar ratio α-ketoglutarate/substrate 15/10, Hepes buffer 50 mM pH 7,5, Mohr's salt 1mM, without sodium ascorbate, room temperature, three hours. How it is done:
as §1, §2, §3

Assay [2] deals with T2, ENZ4 SEQ ID NO:4. In words: Enzymatic hydroxylation of L-ornithine and L-arginine, 10 mL scale, conversion by HPLC. It is filed as biochemical. The note with it: ENZ4 0.595 mg/mL, without sodium ascorbate, room temperature, 18h; HPLC after FDAA derivatization (protocol B). How it is done:
70 µL of the aqueous phase were withdrawn, diluted with 70 µL of acetonitrile and injected into the HPLC. […]
as §2

Assay [3] deals with Decarboxyl (or Decarboxy2). In words: Enzymatic hydroxylation followed by decarboxylation to hydroxylated diamino alkanes, conversion by HPLC (protocol A). It is filed as biochemical, Flavobacterium johnsoniae; Chitinophaga pinensis. The conditions noted are these: L-lysine or L-ornithine hydroxylated (part V conditions), then PLP, DTT and Decarboxy1 (or Decarboxy2) added, 18h at 37 °C; HPLC after Fmoc-Cl derivatization. How it is done: The conversions were determined by HPLC after Fmoc-Cl derivatization (protocol A). Atlantis T3 (3µm 4.5*150 mm) at 35°C with the gradient 50-86% eluent B (MeCN + 0.1% TFA) and eluent A (H2O + 0.1% TFA) in 20 min at 1 mL/min […].
L-lysine was converted into (3S)-3-hydroxy-L-lysine by ENZ1 in conditions described in part V.
30 µL pyridoxal 5'-phosphate (PLP) 10 mM, 3 µL dithiothreitol (DTT) 100 mM and Decarboxyl (or Decarboxy2) 50 µL 1.5 mg/mL were then added in the reaction medium. The mixture was stirred (1000 rpm) for 18h at 37 °C.
Lysine was converted into (4R)-4-hydroxy-L-lysine in conditions described in part V 30 µL PLP 10 mM, 3 µL DTT 100 mM and Decarboxyl(or Decarboxy2) 50 µL 1.5 mg/mL were then added in the reaction medium to perform decarboxylation. The mixture was stirred (1000 rpm) for 18h at 37 °C.
The mixture was stirred (1000 rpm) for 18h at 37 °C.
Lysine was converted into (3R,4R)-3,4-dihydroxy-L-lysine in conditions described in part V, by cascade reaction with ENZ1 (SEQ NO:1) and ENZ2 (SEQ NO:2).
The volume of the reaction medium was reduced to 180 µL using a speedvac. 26 µL PLP 10 mM, 2.6 µL DTT 100 mM and Decarboxyl (or Decarboxy2) 50 µL (lysat) were then added to perform decarboxylation. The mixture was stirred (1000 rpm) for 18h at 37 °C.

For the next assay, the target named is T5, ENZ5 (SEQ ID NO:9) (Niastella koreensis, UniProt G8T8D0).
T5 construct: His6 (hexahistidine, inserted after the initial methionine) (N); made in house; host or cells: E. coli BL21(DE3) plysE
T5 sequence (G8T8D0 1-371): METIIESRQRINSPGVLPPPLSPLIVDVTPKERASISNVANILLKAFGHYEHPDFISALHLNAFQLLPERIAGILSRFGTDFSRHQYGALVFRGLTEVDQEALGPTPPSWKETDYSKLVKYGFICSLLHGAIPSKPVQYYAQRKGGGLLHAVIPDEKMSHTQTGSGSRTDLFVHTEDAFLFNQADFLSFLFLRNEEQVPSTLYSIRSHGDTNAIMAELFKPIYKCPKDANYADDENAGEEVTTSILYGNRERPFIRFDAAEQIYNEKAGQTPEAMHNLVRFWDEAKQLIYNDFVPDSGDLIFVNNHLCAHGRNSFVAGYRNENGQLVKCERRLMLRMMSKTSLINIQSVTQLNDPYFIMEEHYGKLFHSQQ
In words: Hydroxylation capability, HPLC analysis of reaction media after derivatization. Type of assay: biochemical. How it is done: as §3
(§4) The hydroxylation capability of two other enzymes, namely ENZ6 (SEQ ID NO:10) and ENZ5 (SEQ ID NO:9) were also assessed. The amino sequence of ENZ6 has 79% of amino acid identity with SEQ ID NO:2 of ENZ2 while the amino sequence of ENZ5 has 72% of amino acid identity with SEQ ID NO:3 of ENZ3. […] As shown in part VI, ENZ6 and ENZ5 provide (4R)-hydroxy-L-lysine from L-lysine similarly to ENZ2 and ENZ3. Thus ENZ6 and ENZ5 are likely to have the same substrate selectivity and provide similar products as ENZ2 and ENZ3.

A further assay deals with T6, ENZ6 (SEQ ID NO:10) (Flavobacterium sp., UniProt J3BZS6).
T6 construct: His6 (hexahistidine, inserted after the initial methionine) (N); made in house; host or cells: E. coli BL21(DE3) plysE
The description is as above. It is filed as biochemical. How it is done:
as §3, §4

T6 sequence (J3BZS6 whole entry): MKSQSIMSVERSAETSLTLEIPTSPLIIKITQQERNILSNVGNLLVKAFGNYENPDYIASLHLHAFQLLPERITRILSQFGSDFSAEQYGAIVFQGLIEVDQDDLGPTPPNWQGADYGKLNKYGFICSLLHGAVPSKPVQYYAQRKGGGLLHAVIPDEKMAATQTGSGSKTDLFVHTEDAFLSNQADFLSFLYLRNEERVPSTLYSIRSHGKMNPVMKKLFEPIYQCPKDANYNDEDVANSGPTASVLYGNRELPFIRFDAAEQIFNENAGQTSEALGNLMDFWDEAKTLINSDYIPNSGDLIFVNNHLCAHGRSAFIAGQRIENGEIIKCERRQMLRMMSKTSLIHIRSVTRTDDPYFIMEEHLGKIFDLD

In the case of `N=C(N)NCCC[C@H](N)C(=O)O` [L-arginine], the “potential conversions of the substrates, ENZ1 SEQ ID N°1” value on ENZ1 SEQ ID N°1 was “negative”. On ENZ4 SEQ ID NO:4 [1], the “potential conversions of the substrates, ENZ4 SEQ ID NO:4” value was “positive”. Besides, the “potential conversions of the substrates, ENZ2 SEQ ID NO:2” value on ENZ2 SEQ ID NO:2 is “negative”. For the same compound, the “potential conversions of the substrates, ENZ3 SEQ ID NO:3” value at ENZ3 SEQ ID NO:3 is “negative”. The “conversion of L-arginine into hydroxylated product” value on ENZ4 SEQ ID NO:4 [2] is on record as 50%.

In turn, `NCCC(O)CCN` [1,5-diamino-3-pentanol] showed a Conversion in assay [3] of 100%.

In turn, `NCC[C@@H](O)[C@H](O)CN` [(2R,3R)-1,5-diamino-2,3-pentanediol] displayed a Conversion in assay [3] above 90%.

`NCC[C@H](O)CN` [(2S)-1,4-diamino-2-butanol] yielded a Conversion in assay [3] of 50%.

The compound `NCCC[C@H](O)CN` [(2S)-1,5-diamino-2-pentanol] had a Conversion in assay [3] above 95%.

Consider `NCCC[C@H](N)C(=O)O` [L-ornithine], for which, at ENZ5 (SEQ ID NO:9), the “hydroxylation capability of ENZ5” value is reported as “not able to convert”. For the same compound, the “hydroxylation capability of ENZ6” value at ENZ6 (SEQ ID NO:10) is given as “not able to convert”.

Turning to `COC(=O)[C@@H](N)CCCN` [L-ornithine methyl ester], the “potential conversions of the substrates, ENZ1 SEQ ID N°1” value at ENZ1 SEQ ID N°1 is “negative”. At ENZ4 SEQ ID NO:4 [1], the “potential conversions of the substrates, ENZ4 SEQ ID NO:4” value is “negative”. In addition, the “potential conversions of the substrates, ENZ2 SEQ ID NO:2” value on ENZ2 SEQ ID NO:2 was “negative”. Besides, the “potential conversions of the substrates, ENZ3 SEQ ID NO:3” value on ENZ3 SEQ ID NO:3 is “negative”.

These data come from patent EP2876156A1 (COMMISSARIAT A L'ENERGIE ATOMIQUE ET AUX ENERGIES …, priority 2013, dated 2015).
